Measurements as given in patent US20040219543A1, “Method for specifically detecting, isolating and characterizing cells from body samples by transfecting nucleic acid constructs” (priority 2001, published 2004).

How the values were obtained:
PPARδ = target: T1, PPARδ (Homo sapiens, UniProt Q03181); assay: PPARδ-responsive αGFPT204I reporter gene expression in transfected SW480 cells incubated with NSAIDs, flow cytometry; type: cell-based; details: 300 μM, 10 hour incubation of transfected SW480 cells; expression returns virtually to background level
T1 construct: Because of Wnt signal activity, SW480 cells overexpress the transcription factor PPARδ; endogenous in cells; host or cells: SW480 colon carcinoma cells
T1 sequence (Q03181 1-441): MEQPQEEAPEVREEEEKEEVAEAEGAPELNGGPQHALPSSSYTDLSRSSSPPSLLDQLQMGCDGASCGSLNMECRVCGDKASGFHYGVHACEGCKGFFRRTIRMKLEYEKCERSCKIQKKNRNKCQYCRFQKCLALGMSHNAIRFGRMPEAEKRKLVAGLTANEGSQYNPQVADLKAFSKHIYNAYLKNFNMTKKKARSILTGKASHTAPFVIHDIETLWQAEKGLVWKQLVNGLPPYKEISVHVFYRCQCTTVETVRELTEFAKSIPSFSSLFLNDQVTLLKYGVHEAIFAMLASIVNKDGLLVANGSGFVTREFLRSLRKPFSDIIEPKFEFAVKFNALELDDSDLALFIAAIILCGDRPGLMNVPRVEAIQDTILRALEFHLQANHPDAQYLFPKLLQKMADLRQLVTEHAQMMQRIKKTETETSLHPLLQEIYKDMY

tumor cells = details: by inhibiting the PPARδ transcription factor; cited from earlier work

Compound | inhibition of the observed activation of the FOP-αGFPT204I reporter gene in the presence of functional PPARδ-DNA binding sites (PPARδ) | growth of tumor cells (tumor cells)
CSc1ccc(/C=C2/C(C)=C(CC(=O)O)c3cc(F)ccc32)cc1 [Sulindac sulphide] | significantly inhibits | 
CC(=O)Oc1ccccc1C(=O)O [aspirin] |  | able to inhibit the growth of tumor cells
COc1ccc2c(c1)c(CC(=O)O)c(C)n2C(=O)c1ccc(Cl)cc1 [indomethacin] | significantly inhibits | 
CC1=C(CC(=O)O)c2cc(F)ccc2/C1=C\c1ccc([S+](C)[O-])cc1 (stereo not shown) [sulindac] |  | able to inhibit the growth of tumor cells
